# Columns and labels:
# [1] = Half life in human plasma; format: ADME, cell-free
# [2] = Drug degradation at pH 8 after 24 hrs; format: physicochemical; settings: buffer, read-out: Drug degradation
# [3] = Stability assessed as drug degradation by measuring 2-(5-chloro-3-(2-(2-fluorobenzylamino)-2-oxoethyl)-2-oxoindolin-1-yl)acetic acid formation at pH > 6 after 24 hrs; format: physicochemical
# [4] = Stability assessed as drug degradation by measuring 2,2'-(5-chloro-3-(2-fluorobenzylcarbamoyl)-2-oxoindoline-1,3-diyl)diacetic acid formation at pH > 6 after 24 hrs; format: physicochemical
# [5] = Drug degradation at pH 7.4 after 24 hrs; format: physicochemical; settings: buffer, read-out: Drug degradation
# [6] = biological target: T1, Prostaglandin D2 receptor 2 (Homo sapiens, UniProt Q9Y5Y4); test: Displacement of [3H]PGD2 from human CRTH2 receptor expressed in CHO cells after 90 mins by scintillation proximity assay; format: cell-based
# T1 sequence (Q9Y5Y4 whole entry): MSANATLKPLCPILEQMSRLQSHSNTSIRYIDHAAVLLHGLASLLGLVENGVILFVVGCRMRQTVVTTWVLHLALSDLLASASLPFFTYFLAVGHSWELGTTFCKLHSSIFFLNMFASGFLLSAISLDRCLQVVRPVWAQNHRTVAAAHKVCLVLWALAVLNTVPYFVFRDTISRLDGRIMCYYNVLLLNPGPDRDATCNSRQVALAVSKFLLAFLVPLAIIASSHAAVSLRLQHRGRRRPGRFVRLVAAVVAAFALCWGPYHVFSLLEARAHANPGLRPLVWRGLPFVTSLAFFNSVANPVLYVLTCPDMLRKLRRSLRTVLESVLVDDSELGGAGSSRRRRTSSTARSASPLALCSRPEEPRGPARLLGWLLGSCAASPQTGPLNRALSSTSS
# [7] = Apparent permeability of the compound in human Caco2 cells; format: ADME, cell-based; settings: Caco-2
# [8] = Oral bioavailability in monkey; format: ADME, organism-based, Macaca mulatta; settings: rhesus monkey, in vivo
# [9] = Clearance in C57BL/6 mouse at 1 mg/kg, iv and 5 mg/kg, po; format: ADME, organism-based; settings: in vivo
# [10] = Solubility of the compound in fasted state simulated intestinal fluid
# [11] = AUC in C57BL/6 mouse at 5 mg/kg, po; format: ADME, organism-based; parameters: dose 5 mg/kg, route oral; settings: plasma
# Hepatocyte [12] = test: Clearance in human hepatocytes; format: ADME, cell-based
# [13] = Solubility of the compound in simulated gastric fluid; format: physicochemical
# [14] = Oral bioavailability in guinea pig; format: ADME, organism-based, Cavia porcellus; settings: in vivo
# [15] = Oral bioavailability in Sprague-Dawley rat at 5 mg/kg; format: ADME, organism-based; settings: in vivo
# [16] = Fraction unbound in mouse plasma; format: ADME, cell-free
# [17] = Drug degradation in human plasma after 24 hrs; format: ADME, cell-free; settings: read-out: Drug degradation
# [18] = Bioavailability in Sprague-Dawley rat administered by portal vein; format: ADME, organism-based; settings: in vivo
# [19] = Bioavailability in Sprague-Dawley rat after intraduodenal administration; format: ADME, organism-based; settings: in vivo
# [20] = Drug degradation at pH 9 after 24 hrs; format: physicochemical; settings: buffer, read-out: Drug degradation
# [21] = Oral bioavailability in C57BL/6 mouse at 5 mg/kg; format: ADME, organism-based; settings: in vivo
# [22] = Clearance in Sprague-Dawley rat at 1 mg/kg, iv and 5 mg/kg, po; format: ADME, organism-based; settings: in vivo
# [23] = Fraction unbound in rat plasma; format: ADME, cell-free
# [24] = Oral bioavailability in dog; format: ADME, organism-based, Canis lupus familiaris; settings: in vivo
# Liver microsomes = test: Clearance in human liver microsomes; format: ADME, Microsome
# [25] = Fraction unbound in human plasma; format: ADME, cell-free
# Cytochrome P450 1A2 = biological target: T2, Cytochrome P450 1A2 (Homo sapiens, UniProt P05177); test: Inhibition of CYP1A2; format: ADME
# T2 sequence (P05177 whole entry): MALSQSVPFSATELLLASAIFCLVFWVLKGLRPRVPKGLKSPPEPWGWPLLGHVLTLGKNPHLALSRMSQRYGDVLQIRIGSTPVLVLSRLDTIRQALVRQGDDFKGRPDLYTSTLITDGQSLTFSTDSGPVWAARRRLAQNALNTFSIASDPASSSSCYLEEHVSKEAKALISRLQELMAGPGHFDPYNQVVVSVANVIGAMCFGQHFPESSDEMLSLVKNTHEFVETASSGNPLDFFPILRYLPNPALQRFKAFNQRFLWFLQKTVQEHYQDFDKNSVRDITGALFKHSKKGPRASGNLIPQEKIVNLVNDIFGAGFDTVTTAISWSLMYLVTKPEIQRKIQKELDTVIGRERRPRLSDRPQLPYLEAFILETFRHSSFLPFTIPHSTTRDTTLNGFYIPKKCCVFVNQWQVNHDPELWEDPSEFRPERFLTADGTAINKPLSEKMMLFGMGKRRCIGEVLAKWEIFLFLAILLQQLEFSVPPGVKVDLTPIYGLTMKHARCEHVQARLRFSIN
# Cytochrome P450 2D6 = Cytochrome P450 2D6 (Homo sapiens, UniProt P10635); test: Inhibition of CYP2D6; format: ADME
# Sequence of Cytochrome P450 2D6 (P10635 whole entry): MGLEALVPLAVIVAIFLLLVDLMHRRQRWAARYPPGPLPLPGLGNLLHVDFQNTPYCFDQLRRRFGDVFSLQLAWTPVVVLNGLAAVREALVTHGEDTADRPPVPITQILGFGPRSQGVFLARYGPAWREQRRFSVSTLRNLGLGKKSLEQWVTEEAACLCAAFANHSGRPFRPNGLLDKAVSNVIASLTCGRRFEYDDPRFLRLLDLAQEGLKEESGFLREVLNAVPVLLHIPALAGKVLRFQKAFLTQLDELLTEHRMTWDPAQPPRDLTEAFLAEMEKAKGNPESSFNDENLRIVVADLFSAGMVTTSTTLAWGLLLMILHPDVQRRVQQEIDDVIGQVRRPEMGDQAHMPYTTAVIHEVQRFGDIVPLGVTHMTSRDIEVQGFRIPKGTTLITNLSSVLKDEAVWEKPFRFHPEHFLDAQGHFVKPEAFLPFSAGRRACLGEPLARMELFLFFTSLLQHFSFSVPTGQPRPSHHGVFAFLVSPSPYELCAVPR
# Mus musculus = test: Antiinflammatory activity in ovalbumin-sensitised Balb/c mouse assessed as reduction in ovalbumin-induced eosinophil count in bronchoalveolar lavage fluid at 30 mg/kg, po administered 1 hr before and 7 hrs after ovalbumin challenge measured after 8 hrs by haemocytometeric analysis; format: functional; settings: Lung
# Cytochrome P450 2C19 = Cytochrome P450 2C19 (Homo sapiens, UniProt P33261); test: Inhibition of CYP2C19; format: ADME
# Sequence of Cytochrome P450 2C19 (P33261 whole entry): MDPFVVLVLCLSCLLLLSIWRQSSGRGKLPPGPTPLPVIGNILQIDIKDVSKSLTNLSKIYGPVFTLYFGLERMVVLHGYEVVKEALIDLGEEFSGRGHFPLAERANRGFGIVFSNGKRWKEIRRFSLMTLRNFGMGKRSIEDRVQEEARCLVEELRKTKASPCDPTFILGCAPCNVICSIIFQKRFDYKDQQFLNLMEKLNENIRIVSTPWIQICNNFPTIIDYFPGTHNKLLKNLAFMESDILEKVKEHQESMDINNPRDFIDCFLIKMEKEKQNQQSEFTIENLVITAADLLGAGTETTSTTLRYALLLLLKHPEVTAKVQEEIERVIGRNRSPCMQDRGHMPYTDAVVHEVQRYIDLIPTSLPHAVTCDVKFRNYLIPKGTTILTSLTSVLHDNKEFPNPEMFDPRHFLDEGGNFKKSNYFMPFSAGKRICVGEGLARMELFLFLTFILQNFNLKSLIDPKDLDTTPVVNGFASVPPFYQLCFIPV
# Cytochrome P450 2C8 = biological target: T3, Cytochrome P450 2C8 (Homo sapiens, UniProt P10632); test: Inhibition of CYP2C8; format: ADME
# T3 sequence (P10632 whole entry): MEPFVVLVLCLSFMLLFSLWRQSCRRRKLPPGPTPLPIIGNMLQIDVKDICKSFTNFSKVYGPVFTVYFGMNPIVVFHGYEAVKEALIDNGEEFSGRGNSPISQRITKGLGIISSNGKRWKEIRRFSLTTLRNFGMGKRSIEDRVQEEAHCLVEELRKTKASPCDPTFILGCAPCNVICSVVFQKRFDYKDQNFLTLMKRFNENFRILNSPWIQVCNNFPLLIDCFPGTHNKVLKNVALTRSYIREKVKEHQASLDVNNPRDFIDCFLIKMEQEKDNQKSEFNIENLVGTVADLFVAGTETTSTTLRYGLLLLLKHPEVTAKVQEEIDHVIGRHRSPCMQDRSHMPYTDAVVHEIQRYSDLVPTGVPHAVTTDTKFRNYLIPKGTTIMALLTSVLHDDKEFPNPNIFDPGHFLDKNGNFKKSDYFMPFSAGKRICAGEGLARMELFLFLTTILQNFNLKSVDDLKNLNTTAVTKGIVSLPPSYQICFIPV
# [26] = biological target: T4, Prostaglandin D2 receptor (Homo sapiens) (UniProt Q13258); test: Antagonist activity at DP1 receptor expressed in HEK cells assessed as inhibition of PGD2-induced cAMP production at 20 uM; format: functional, cell-based; settings: HEK293
# T4 sequence (whole entry): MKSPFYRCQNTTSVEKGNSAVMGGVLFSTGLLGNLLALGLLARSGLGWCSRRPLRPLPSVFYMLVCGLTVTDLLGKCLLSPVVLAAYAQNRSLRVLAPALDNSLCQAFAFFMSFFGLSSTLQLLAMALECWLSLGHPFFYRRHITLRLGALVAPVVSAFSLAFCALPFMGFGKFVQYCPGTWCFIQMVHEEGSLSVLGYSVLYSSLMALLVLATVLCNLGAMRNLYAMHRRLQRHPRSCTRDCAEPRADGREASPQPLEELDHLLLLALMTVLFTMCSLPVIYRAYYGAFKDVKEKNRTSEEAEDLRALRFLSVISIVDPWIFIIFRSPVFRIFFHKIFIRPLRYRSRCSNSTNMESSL
# [27] = biological target: Prostaglandin E2 receptor EP2 subtype (Homo sapiens) (UniProt P43116); test: Inhibition of EP2 at 10 uM
# Sequence of Prostaglandin E2 receptor EP2 subtype (Homo sapiens) (P43116 whole entry): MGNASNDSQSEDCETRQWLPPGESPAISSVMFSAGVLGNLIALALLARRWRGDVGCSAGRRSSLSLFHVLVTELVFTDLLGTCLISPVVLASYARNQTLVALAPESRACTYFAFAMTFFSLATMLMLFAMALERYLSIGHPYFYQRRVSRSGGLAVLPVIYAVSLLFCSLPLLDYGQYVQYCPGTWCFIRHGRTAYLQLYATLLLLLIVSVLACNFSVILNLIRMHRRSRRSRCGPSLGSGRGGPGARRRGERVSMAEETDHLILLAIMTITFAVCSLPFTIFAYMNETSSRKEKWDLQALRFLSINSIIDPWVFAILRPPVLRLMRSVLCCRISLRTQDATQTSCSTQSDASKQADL
# Cytochrome P450 2C9 = Cytochrome P450 2C9 (Homo sapiens, UniProt P11712); test: Inhibition of CYP2C9; format: ADME
# Sequence of Cytochrome P450 2C9 (P11712 whole entry): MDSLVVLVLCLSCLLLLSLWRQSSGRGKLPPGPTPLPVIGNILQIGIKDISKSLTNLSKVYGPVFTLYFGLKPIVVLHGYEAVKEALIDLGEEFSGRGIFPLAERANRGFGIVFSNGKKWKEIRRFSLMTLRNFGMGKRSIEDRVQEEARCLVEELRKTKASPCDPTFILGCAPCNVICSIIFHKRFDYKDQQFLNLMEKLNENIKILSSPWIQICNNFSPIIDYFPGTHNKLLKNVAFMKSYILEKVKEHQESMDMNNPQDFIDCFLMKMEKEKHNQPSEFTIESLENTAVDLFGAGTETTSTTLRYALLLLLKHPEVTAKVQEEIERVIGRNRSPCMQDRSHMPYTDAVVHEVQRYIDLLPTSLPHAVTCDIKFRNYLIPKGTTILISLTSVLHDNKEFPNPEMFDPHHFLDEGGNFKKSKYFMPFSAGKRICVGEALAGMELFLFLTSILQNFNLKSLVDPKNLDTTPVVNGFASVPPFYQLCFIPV
# Hepatocyte [28] = test: Cytotoxicity against primary rat hepatocytes up to 750 uM; format: cell-based
# [29] = biological target: T4, Prostaglandin D2 receptor (Homo sapiens); test: Inhibition of DP1 expressed in human HEK cells at 20 uM; format: cell-based; settings: HEK293
# [30] = biological target: Voltage-gated inwardly rectifying potassium channel KCNH2 (Homo sapiens, UniProt Q12809); test: Inhibition of human Erg
# Sequence of Voltage-gated inwardly rectifying potassium channel KCNH2 (Q12809 whole entry): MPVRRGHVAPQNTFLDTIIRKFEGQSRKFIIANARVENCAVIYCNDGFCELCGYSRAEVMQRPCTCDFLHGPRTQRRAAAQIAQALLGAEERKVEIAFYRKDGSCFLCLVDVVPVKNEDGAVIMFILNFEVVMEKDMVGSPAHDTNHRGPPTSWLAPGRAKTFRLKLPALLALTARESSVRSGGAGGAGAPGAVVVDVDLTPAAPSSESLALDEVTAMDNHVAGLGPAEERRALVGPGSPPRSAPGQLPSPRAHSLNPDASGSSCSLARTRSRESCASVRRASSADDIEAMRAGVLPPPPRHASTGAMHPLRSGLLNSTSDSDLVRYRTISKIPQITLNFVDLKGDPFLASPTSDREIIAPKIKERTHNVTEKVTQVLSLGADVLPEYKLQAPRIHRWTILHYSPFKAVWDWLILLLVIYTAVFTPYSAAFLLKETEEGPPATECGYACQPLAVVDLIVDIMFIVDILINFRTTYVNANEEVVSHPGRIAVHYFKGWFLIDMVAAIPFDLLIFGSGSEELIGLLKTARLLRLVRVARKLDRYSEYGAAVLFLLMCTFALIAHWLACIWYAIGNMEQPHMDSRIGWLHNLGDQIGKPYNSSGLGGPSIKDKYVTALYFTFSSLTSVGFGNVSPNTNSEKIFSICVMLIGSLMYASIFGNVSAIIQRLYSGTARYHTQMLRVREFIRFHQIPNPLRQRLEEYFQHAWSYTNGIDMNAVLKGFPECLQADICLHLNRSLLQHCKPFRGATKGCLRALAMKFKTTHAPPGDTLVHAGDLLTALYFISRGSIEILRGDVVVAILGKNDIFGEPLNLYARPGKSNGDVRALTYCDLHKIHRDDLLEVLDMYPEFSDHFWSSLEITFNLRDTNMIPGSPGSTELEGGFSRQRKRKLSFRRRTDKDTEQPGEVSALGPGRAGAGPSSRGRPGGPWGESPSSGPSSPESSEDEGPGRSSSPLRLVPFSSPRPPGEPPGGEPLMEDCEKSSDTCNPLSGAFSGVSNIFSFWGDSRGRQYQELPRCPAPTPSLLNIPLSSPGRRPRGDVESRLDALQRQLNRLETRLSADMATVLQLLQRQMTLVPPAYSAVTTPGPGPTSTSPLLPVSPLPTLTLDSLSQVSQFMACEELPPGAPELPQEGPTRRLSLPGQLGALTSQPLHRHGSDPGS
# [31] = Intrinsic clearance in human liver microsomes; format: ADME, Microsome; settings: read-out: CLH
# [32] = biological target: Aldo-keto reductase family 1 member B1 (Homo sapiens, UniProt P15121); test: Inhibition of aldose reductase
# Cytochrome P450 3A4 = Cytochrome P450 3A4 (Homo sapiens, UniProt P08684); test: Inhibition of CYP3A4; format: ADME
# Sequence of Cytochrome P450 3A4 (P08684 whole entry): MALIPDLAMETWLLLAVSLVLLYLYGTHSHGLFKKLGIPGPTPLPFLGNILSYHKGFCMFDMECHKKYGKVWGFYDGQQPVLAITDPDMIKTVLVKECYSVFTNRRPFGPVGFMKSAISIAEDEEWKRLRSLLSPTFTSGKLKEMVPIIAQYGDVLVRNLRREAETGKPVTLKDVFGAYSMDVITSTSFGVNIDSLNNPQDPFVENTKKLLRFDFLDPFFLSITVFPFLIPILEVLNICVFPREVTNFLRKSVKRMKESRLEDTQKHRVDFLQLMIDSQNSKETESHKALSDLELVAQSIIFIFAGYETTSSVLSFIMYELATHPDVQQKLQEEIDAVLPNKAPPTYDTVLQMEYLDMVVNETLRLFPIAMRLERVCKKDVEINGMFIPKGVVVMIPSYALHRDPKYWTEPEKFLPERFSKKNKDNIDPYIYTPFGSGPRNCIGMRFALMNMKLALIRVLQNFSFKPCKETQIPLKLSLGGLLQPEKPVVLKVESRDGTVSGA
# [33] = biological target: T5, Prostaglandin E2 receptor EP1 subtype (Homo sapiens) (UniProt P34995); test: Inhibition of EP1 at 10 uM
# T5 sequence (whole entry): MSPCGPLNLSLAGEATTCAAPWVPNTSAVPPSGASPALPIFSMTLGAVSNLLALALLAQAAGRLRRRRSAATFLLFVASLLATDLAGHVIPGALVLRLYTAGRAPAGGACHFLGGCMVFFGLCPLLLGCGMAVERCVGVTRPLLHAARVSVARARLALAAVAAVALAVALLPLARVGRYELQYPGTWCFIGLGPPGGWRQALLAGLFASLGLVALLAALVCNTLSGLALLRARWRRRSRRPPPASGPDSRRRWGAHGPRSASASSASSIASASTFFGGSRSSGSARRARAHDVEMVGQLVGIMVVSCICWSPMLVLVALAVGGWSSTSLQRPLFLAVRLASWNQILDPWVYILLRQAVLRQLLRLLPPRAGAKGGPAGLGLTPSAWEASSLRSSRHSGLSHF
# [34] = Intrinsic clearance in rat liver microsomes; format: ADME, Microsome; settings: read-out: CLH
# HepG2 = test: Cytotoxicity against human HepG2 cells up to 750 uM; format: cell-based
structure (smiles),measurement,setting,value
O=C(O)CN1C(=O)[C@@]2(CC(=O)N(Cc3ccccc3F)C2=O)c2cc(Cl)ccc21,half-life,[1],1 h
same,degraded at 24 h,[2],50%
same,Stability,[3],Unstable
same,Stability,[4],Unstable
same,degraded at 24 h,[5],25%
CN1C(=O)N(Cc2cn(-c3ccccc3)nc2-c2ccccc2)C(=O)C12C(=O)N(CC(=O)O)c1ccc(Cl)cc12 (stereo not given),Ki,[6],96 nM
O=C(O)CN1C(=O)[C@@]2(CC(=O)N(Cc3cc(Cl)ccc3F)C2=O)c2cc(Cl)ccc21,half-life,[1],1 h
same,Papp,[7],26 ×10⁻⁶ cm/s
O=C(O)CN1C(=O)[C@@]2(NC(=O)N(Cc3cc(Cl)ccc3F)C2=O)c2cc(Cl)ccc21,bioavailability,[8],10%
same,clearance,[9],13.3 mL/min/kg
same,solubility,[10],1500 µg/mL
same,AUC,[11],580 ng·h/mL
same,degraded at 24 h,[2],< 5%
same,Ki,[6],15 nM
same,CLH,Hepatocyte [12],2 µg/mL/h
same,solubility,[13],10 µg/mL
same,bioavailability,[14],7%
same,bioavailability,[15],6%
same,fraction unbound,[16],0.063
same,metabolised at 24 h,[17],< 15%
same,bioavailability,[18],90%
same,bioavailability,[19],11%
same,degraded at 24 h,[20],45%
same,bioavailability,[21],9%
same,clearance,[22],2.5 mL/min/kg
same,fraction unbound,[23],0.03
same,bioavailability,[24],71%
same,CLH,Liver microsomes,< 1 µg/mL/h
same,Papp,[7],0.2 ×10⁻⁶ cm/s
same,fraction unbound,[25],0.023
CN1C(=O)N(Cc2cc(Cl)ccc2F)C(=O)[C@]12C(=O)N(CC(=O)O)c1ccc(Cl)cc12,IC50,Cytochrome P450 1A2,> 10000 nM
same,clearance,[9],13.3 mL/min/kg
same,IC50,Cytochrome P450 2D6,> 10000 nM
same,AUC,[11],2400 ng·h/mL
same,inhibition in vivo at 30 mg/kg,Mus musculus,67%
same,IC50,Cytochrome P450 2C19,> 10000 nM
same,IC50,Cytochrome P450 2C8,> 10000 nM
same,Ki,[6],35 nM
same,inhibition,[26],< 30%
same,inhibition,[27],34%
same,IC50,Cytochrome P450 2C9,> 10000 nM
same,bioavailability,[15],37%
same,Activity,Hepatocyte [28],Non-toxic
same,inhibition,[29],< 30%
same,inhibition (INH),[30],Not Active
same,fraction unbound,[16],0.05
same,microsomal CLint,[31],< 10 µL/min/mg
same,IC50,[32],150 nM
same,IC50,Cytochrome P450 3A4,> 10000 nM
same,bioavailability,[21],39%
same,inhibition,[33],32%
same,microsomal CLint,[34],< 10 µL/min/mg
same,fraction unbound,[23],0.019
same,Papp,[7],0.6 ×10⁻⁶ cm/s
same,Activity,HepG2,Non-toxic
same,fraction unbound,[25],0.02
COc1c(C)cnc(CN2C(=O)N(C)C3(C2=O)C(=O)N(CC(=O)O)c2ccc(Cl)cc23)c1C (stereo not given),Ki,[6],280 nM
CN1C(=O)N(Cc2cc(F)ccc2F)C(=O)C12C(=O)N(CC(=O)O)c1ccc(Cl)cc12 (stereo not given),Ki,[6],390 nM
CC(C)c1nc(CN2C(=O)N(C)C3(C2=O)C(=O)N(CC(=O)O)c2ccc(Cl)cc23)cs1 (stereo not given),Ki,[6],490 nM
Cc1onc(-c2ccccc2)c1CN1C(=O)N(C)C2(C1=O)C(=O)N(CC(=O)O)c1ccc(Cl)cc12 (stereo not given),Ki,[6],110 nM
